We go through 31 compounds from patent US8293781B2, “Indole derivatives having cPLA2 inhibiting activity and applications and production methods of the same” (Daiichi Sankyo Company, Limited, priority 2007, dated 2012).

Molecules are shown by their SMILES. Structures can show the parent of a compound that is named as a salt.

This assay deals with T1, cPLA2 crudely purified from the cytoplasm fraction of U937 (Homo sapiens, UniProt P47712).
T1 construct: cPLA2 crudely purified from the cytoplasm fraction of U937; endogenous in cells; host or cells: U937 cells (cytoplasm fraction, crude purification)
T1 sequence (P47712 1-749): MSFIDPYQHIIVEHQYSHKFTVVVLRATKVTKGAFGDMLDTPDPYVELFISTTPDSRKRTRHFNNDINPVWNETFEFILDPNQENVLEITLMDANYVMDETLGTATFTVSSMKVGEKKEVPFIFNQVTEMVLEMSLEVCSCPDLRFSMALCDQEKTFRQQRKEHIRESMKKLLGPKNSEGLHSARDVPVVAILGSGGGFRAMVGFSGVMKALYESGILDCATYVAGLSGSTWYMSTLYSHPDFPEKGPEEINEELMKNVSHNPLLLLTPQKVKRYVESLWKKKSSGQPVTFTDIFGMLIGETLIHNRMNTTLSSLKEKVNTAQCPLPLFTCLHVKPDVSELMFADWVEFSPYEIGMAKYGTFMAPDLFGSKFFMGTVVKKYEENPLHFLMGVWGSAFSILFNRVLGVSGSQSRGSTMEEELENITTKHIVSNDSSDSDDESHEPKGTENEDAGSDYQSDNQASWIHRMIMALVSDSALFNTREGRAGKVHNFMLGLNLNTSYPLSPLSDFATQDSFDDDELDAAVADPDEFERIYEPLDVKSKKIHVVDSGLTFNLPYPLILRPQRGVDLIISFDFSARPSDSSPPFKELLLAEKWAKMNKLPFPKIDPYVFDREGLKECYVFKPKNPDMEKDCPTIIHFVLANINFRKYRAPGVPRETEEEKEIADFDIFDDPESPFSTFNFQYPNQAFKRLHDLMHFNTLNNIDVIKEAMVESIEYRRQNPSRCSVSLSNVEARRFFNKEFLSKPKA
Description: Measurement of cPLA2 inhibitory activity (release of [14C]-arachidonic acid from phosphatidyl choline liposome). In kind it is biochemical. The note with it: cPLA2 from U937 cytoplasm fraction, [14C]arachidonyl-phosphatidyl choline liposome, 37° C., 60 minutes; read-out: cPLA2 inhibitory activity, 50% inhibiting concentration IC50. In outline: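 The read-out is radioactivity from extracted [14C]-arachidonic acid, freed over 60 min at 37° C from liposomes of 14C-arachidonyl phosphatidylcholine (10 μM PC in the added solution). Buffer was 50 mM HEPES pH 7.5 with Ca2+, DTT, NaCl and BSA. IC50 was derived from inhibition relative to enzyme control minus no-enzyme control.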
For `O=C(O)CCc1ccc2c(c1)c(CCc1ccccc1)cn2-c1cccc(F)c1` [Example 183, 3-[1-(3-fluorophenyl)-3-(2-phenylethyl)-1H-indol-5-yl]propanoic acid], the IC50 stood at 70 nM. Take `O=C(O)CCc1ccc2c(c1)c(CCc1ccccc1)cn2-c1cccc(OC(F)F)c1` [Example 185, 3-{1-[3-(difluoromethoxy)phenyl]-3-(2-phenylethyl)-1H-indol-5-yl}propanoic acid]: the IC50 came out at 278 nM. For `O=C(O)CCc1ccc2c(c1)c(CCc1ccccc1)cn2-c1ccc(OC(F)F)cc1` [Example 189, 3-{1-[4-(difluoromethoxy)phenyl]-3-(2-phenylethyl)-1H-indol-5-yl}propanoic acid], the IC50 was determined as 43 nM. Turning to `Nc1ccc(-n2cc(CCc3ccccc3)c3cc(CCC(=O)O)ccc32)cc1` [Example 196, 3-[1-(4-aminophenyl)-3-(2-phenylethyl)-1H-indol-5-yl]propanoic acid], the IC50 is 66 nM. Next, `COCC(=O)Nc1ccc(-n2cc(CCc3ccccc3)c3cc(CCC(=O)O)ccc32)cc1` [Example 197, 3-[1-{4-[(methoxyacetyl)amino]phenyl}-3-(2-phenylethyl)-1H-indol-5-yl]propanoic acid]: 157 nM. Turning to `O=C(O)CCc1ccc2c(c1)c(CCc1ccccc1)cn2-c1ccc(OCc2ccccc2)nc1` [Example 199, 3-{1-[6-(benzyloxy)pyridin-3-yl]-3-(2-phenylethyl)-1H-indol-5-yl}propanoic acid], the IC50 is 986 nM.

As for `COCCc1ccc(-n2cc(CCc3ccccc3)c3cc(CCC(=O)O)ccc32)cc1` [Example 201, 3-{1-[4-(2-methoxyethyl)phenyl]-3-(2-phenylethyl)-1H-indol-5-yl}propanoic acid], the IC50 turned out to be 219 nM. `COCCOc1ccc(-n2cc(CCc3ccccc3)c3cc(CCC(=O)O)ccc32)cc1` [Example 203, 3-{1-[4-(2-methoxyethoxy)phenyl]-3-(2-phenylethyl)-1H-indol-5-yl}propanoic acid]: the IC50 came out at 10 nM. Next, `O=C(O)CCc1ccc2c(c1)c(CCc1ccccc1)cn2-c1ccc(C(F)(F)F)cn1` [Example 205, 3-{3-(2-phenylethyl)-1-[5-(trifluoromethyl)pyridin-2-yl]-1H-indol-5-yl}propanoic acid]: 133 nM; `O=C(O)CCc1ccc2c(c1)c(CCc1ccccc1)cn2-c1ccc(C(F)(F)F)cc1` [Example 207, 3-{3-(2-phenylethyl)-1-[4-(trifluoromethyl)phenyl]-1H-indol-5-yl}propanoic acid]: 64 nM.

`O=C(O)CCc1ccc2c(c1)c(CCc1ccccc1)cn2-c1ccc(CCO)cc1` [Example 209, 3-{1-[4-(2-hydroxyethyl)phenyl]-3-(2-phenylethyl)-1H-indol-5-yl}propanoic acid]: the IC50 worked out at 244 nM.

With `COc1ccc(-n2cc(CCc3ccccc3)c3cc(CCC(=O)O)ccc32)cc1OC` [Example 211, 3-[1-(3,4-dimethoxyphenyl)-3-(2-phenylethyl)-1H-indol-5-yl]propanoic acid], the IC50 amounted to 790 nM. For `O=C(O)CCc1ccc2c(c1)c(CCc1ccccc1)cn2-c1ccc(OC2CCCCO2)cc1` (stereo not shown) [Example 213, 3-{3-(2-phenylethyl)-1-[4-(tetrahydro-2H-pyran-2-yloxy)phenyl]-1H-indol-5-yl}propanoic acid], the IC50 amounted to 15 nM. On to `O=C(O)CCc1ccc2c(c1)c(CCc1ccccc1)cn2-c1ccc(OC2CCCCO2)cc1` (stereo not shown) [Example 214, 3-{3-(2-phenylethyl)-1-[4-(tetrahydro-2H-pyran-2-yloxy)phenyl]-1H-indol-5-yl}propanoic acid 2-amino-2-(hydroxymethyl)propane-1,3-diol salt (1:1)], for which the IC50 came to 5 nM. In the case of `COCc1ccc(-n2cc(CCc3ccccc3)c3cc(CCC(=O)O)ccc32)cc1` [Example 216, 3-{1-[4-(methoxymethyl)phenyl]-3-(2-phenylethyl)-1H-indol-5-yl}propanoic acid], the IC50 is 86 nM. With `O=C(O)CCc1ccc2c(c1)c(CCc1ccccc1)cn2-c1ccc(CO)cc1` [Example 219, 3-{1-[4-(hydroxymethyl)phenyl]-3-(2-phenylethyl)-1H-indol-5-yl}propanoic acid], the IC50 is 147 nM. Regarding `O=C(O)CCc1ccc2c(c1)c(CCc1ccccc1)cn2-c1ccc(CO)cc1` [Example 220, 3-{1-[4-(hydroxymethyl)phenyl]-3-(2-phenylethyl)-1H-indol-5-yl}propanoic acid 2-amino-2-(hydroxymethyl)propane-1,3-diol salt (1:1)], the IC50 is 146 nM. As to `O=C(O)CCc1ccc2c(c1)c(CCc1ccccc1)cn2-c1ccc(OCCN2CCCC2)cc1` [Example 222, 3-{3-(2-phenylethyl)-1-[4-(2-pyrrolidin-1-ylethoxy)phenyl]-1H-indol-5-yl}propanoic acid], the IC50 stood at 49 nM.

In the case of `O=C(O)CCc1ccc2c(c1)c(CCc1ccccc1)cn2-c1ccc(OCCN2CCCC2)cc1` [Example 223, 3-{3-(2-phenylethyl)-1-[4-(2-pyrrolidin-1-ylethoxy)phenyl]-1H-indol-5-yl}propanoic acid hydrochloride], the IC50 came out at 57 nM.

Take `O=C(O)CCc1ccc2c(c1)c(CCc1ccccc1)cn2-c1ccc(OC2CCOCC2)cc1` [Example 225, 3-{3-(2-phenylethyl)-1-[4-(tetrahydro-2H-pyran-4-yloxy)phenyl]-1H-indol-5-yl}propanoic acid]: the IC50 was 8 nM. `O=C(O)CCc1ccc2c(c1)c(CCc1ccccc1)cn2-c1ccc(OCCO)cc1` [Example 228, 3-{1-[4-(2-hydroxyethoxy)phenyl]-3-(2-phenylethyl)-1H-indol-5-yl}propanoic acid]: the IC50 was determined as 4 nM. Next, `O=C(O)CCc1ccc2c(c1)c(CCc1ccccc1)cn2-c1ccc2c(c1)OCCO2` [Example 233, 3-[1-(2,3-dihydro-1,4-benzodioxin-6-yl)-3-(2-phenylethyl)-1H-indol-5-yl]propanoic acid 2-amino-2-(hydroxymethyl)propane-1,3-diol salt (1:1)]: 82 nM; `O=C(O)CCc1ccc2c(c1)c(CCc1ccccc1)cn2-c1ccc(Cc2ccccn2)cc1` [Example 235, 3-{3-(2-phenylethyl)-1-[4-(pyridin-2-ylmethyl)phenyl]-1H-indol-5-yl}propanoic acid hydrochloride]: 122 nM. `O=C(O)CCc1ccc2c(c1)c(CCc1ccccc1)cn2-c1ccc(Cc2ccncc2)cc1` [Example 237, 3-{3-(2-phenylethyl)-1-[4-(pyridin-4-ylmethyl)phenyl]-1H-indol-5-yl}propanoic acid hydrochloride]: the IC50 is 193 nM. As to `O=C(O)/C=C/c1ccc2c(c1)c(CCc1ccccc1)cn2-c1ccc(O)cc1` [Example 239, (2E)-3-[1-(4-hydroxyphenyl)-3-(2-phenylethyl)-1H-indol-5-yl]-2-propenoic acid], the IC50 stood at 54 nM. As for `O=C(O)CCc1ccc2c(c1)c(CCc1ccccc1)cn2-c1ccc(OCC2CCCCO2)cc1` (stereo not shown) [Example 243, 3-{3-(2-phenylethyl)-1-[4-(tetrahydro-2H-pyran-2-ylmethoxy)phenyl]-1H-indol-5-yl}propanoic acid 2-amino-2-(hydroxymethyl)propane-1,3-diol salt (1:1)], the IC50 was found to be 4 nM.

With `O=C(O)CCc1ccc2c(c1)c(CCc1ccccc1)cn2-c1ccc(OCc2ccccn2)cc1` [Example 245, 3-{3-(2-phenylethyl)-1-[4-(pyridin-2-ylmethoxy)phenyl]-1H-indol-5-yl}propanoic acid], the IC50 came to 10 nM. Regarding `O=C(O)CCc1ccc2c(c1)c(CCc1ccccc1)cn2-c1ccc(OCc2ccccn2)cc1` [Example 246, 3-{3-(2-phenylethyl)-1-[4-(pyridin-2-ylmethoxy)phenyl]-1H-indol-5-yl}propanoic acid hydrochloride], the IC50 was 7 nM. In the case of `O=C(O)CCc1ccc2c(c1)c(CCc1ccccc1)cn2-c1ccc(OCc2cccnc2)cc1` [Example 248, 3-{3-(2-phenylethyl)-1-[4-(pyridin-3-ylmethoxy)phenyl]-1H-indol-5-yl}propanoic acid], the IC50 was 7 nM. As for `O=C(O)CCc1ccc2c(c1)c(CCc1ccccc1)cn2-c1ccc(OCc2cccnc2)cc1` [Example 249, 3-{3-(2-phenylethyl)-1-[4-(pyridin-3-ylmethoxy)phenyl]-1H-indol-5-yl}propanoic acid hydrochloride], the IC50 is 26 nM. With `O=C(O)CCc1ccc2c(c1)c(CCc1ccccc1)cn2-c1ccc(OCCc2ccccn2)cc1` [Example 251, 3-{3-(2-phenylethyl)-1-[4-(2-pyridin-2-ylethoxy)phenyl]-1H-indol-5-yl}propanoic acid] the figure was 9 nM.
